Source: patent US20260070902A1, “SULFONYL DERIVATIVES AS CCR6 INHIBITORS” (Hoffmann-La Roche Inc., priority 2022, published 2026)

These molecules were tested against T1, human CCR6 (Homo sapiens, UniProt P51684) (assay: Human CCR6-CRE reporter assay). Details: relative -Log IC50; 293FT cells transfected with human CCR6 and CRE-luciferase reporter; 6 μM Forskolin, 6 nM CCL20; 5 h.
T1 sequence (P51684 1-374): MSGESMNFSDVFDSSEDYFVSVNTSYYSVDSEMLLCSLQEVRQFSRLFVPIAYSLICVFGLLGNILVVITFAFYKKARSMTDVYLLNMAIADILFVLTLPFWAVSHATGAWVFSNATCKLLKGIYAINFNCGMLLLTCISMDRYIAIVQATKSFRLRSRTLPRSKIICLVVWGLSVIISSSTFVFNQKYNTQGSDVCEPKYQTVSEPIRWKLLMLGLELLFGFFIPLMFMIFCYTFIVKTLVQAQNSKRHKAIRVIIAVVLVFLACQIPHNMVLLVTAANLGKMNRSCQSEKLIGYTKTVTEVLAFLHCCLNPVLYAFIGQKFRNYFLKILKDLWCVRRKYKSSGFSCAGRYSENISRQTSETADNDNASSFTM
Assay type: cell-based
Design: The second construct contained the open reading frame of human CCR6 in the pUNO1 backbone; host or cells: 293FT cells
Description: Human CCR6-CRE Reporter Assay
293FT cells were transfected with 2 constructs using TransIT-293 (Mirus). The first construct (pGL4.29, Promega) expressed the luciferase reporter gene luc2P in response to the binding of cAMP-induced CREB to the CREelement in its promoter. The second construct contained the open reading frame of human CCR6 in the pUNO1 backbone under the control of an enhanced CMV promoter (InVivoGen). 48 h after transfection, cells were harvested and diluted to 750,000 cells/ml in culture medium (DMEM, 10% FBS, 1× pen/strep (Gibco 15140)). Compounds were 2.5-fold serially diluted in DMSO. Further dilutions were made in assay medium (DMEM, 10% FBS, 1× pen/strep, 6 μM Forskolin, 6 nM CCL20). 4 μl of the compound solution was added to a white MW384 plate, followed by 20 μl of the cell suspension. Final DMSO concentration in the assay was 0.1%. The MW384 plate was placed in an incubator at 37° C., 5% CO2 for 5 h. Luciferase activity was determined by addition of 24 μl of a 2.5× diluted BriteLite luciferase solution (Perkin Elmer), followed by luminescence measurement using a VICTOR Plate reader (Perkin Elmer). […] The relative −Log IC50 was determined with GraphPad Prism 9 using a four-parameter dose-response model.
With Cc1n[nH]c2ccc(-c3ccc(S(=O)(=O)[C@H]4CC[C@@H](Nc5ccc(S(F)(F)(F)(F)F)cc5)CC4)cc3)cc12 [Example 5, 4-(pentafluoro-λ^6-sulfanyl)-N-[cis-4-[4-(3-methyl-2H-indazol-5-yl)benzenesulfonyl]cyclohexyl]aniline] the IC50 was 501 nM. N#Cc1c[nH]c2ccc(-c3ccc(S(=O)(=O)[C@H]4CC[C@@H](Nc5ccc(S(F)(F)(F)(F)F)cc5)CC4)cc3)cc12 [Example 8, 5-(4-{[cis-4-{[4-(pentafluoro-λ^6-sulfanyl)phenyl]Amino}cyclohexyl]sulfonyl}phenyl)-1H-indole-3-carbonitrile] gave an IC50 of 1260 nM. Molecule N#Cc1cnc2ccc(-c3ccc(S(=O)(=O)[C@H]4CC[C@@H](Nc5ccc(S(F)(F)(F)(F)F)cc5)CC4)cc3)cn12 [Example 17, 6-(4-{[cis-4-{[4-(pentafluoro-λ^6-sulfanyl)phenyl]Amino}cyclohexyl]sulfonyl}phenyl)imidazo[1,2-a]pyridine-3-carbonitrile] has an IC50 of 794 nM. Work on O=S(=O)(c1ccc(-c2ccc3nnc(C4CCCC4)n3c2)cc1)N1CCC(Nc2ccc(S(F)(F)(F)(F)F)cc2)CC1 [Example 31, 1-(4-{3-cyclopentyl-[1,2,4]triazolo[4,3-a]pyridin-6-yl}benzenesulfonyl)-N-[4-(pentafluoro-λ^6-sulfanyl)phenyl]piperidin-4-amine] yielded an IC50 of 63.1 nM. In the case of CN(C)C(=O)c1ccc(-c2ccc(S(=O)(=O)[C@H]3CC[C@@H](Nc4ccc(S(F)(F)(F)(F)F)cc4)CC3)cc2)nc1 [Example 45, N,N-dimethyl-6-(4-{[cis-4-{[4-(pentafluoro-λ^6-sulfanyl)phenyl]Amino}cyclohexyl]sulfonyl}phenyl)pyridine-3-carboxamide], the IC50 is reported as 1580 nM. Work on CN(C)C(=O)c1ccc(-c2ccc(S(=O)(=O)[C@H]3CC[C@H](Nc4ccc(S(F)(F)(F)(F)F)cc4)CC3)cc2)nc1 [Example 46, N,N-dimethyl-6-(4-{[trans-4-{[4-(pentafluoro-λ^6-sulfanyl)phenyl]Amino}cyclohexyl]sulfonyl}phenyl)pyridine-3-carboxamide] yielded an IC50 of 251 nM. For O=c1cc(-c2ccc(S(=O)(=O)[C@H]3CC[C@H](Nc4ccc(S(F)(F)(F)(F)F)cc4)CC3)cc2)cc[nH]1 [Example 52, 4-(4-{[trans-4-{[4-(pentafluoro-λ^6-sulfanyl)phenyl]Amino}cyclohexyl]sulfonyl}phenyl)-1,2-dihydropyridin-2-one], the IC50 was 39.8 nM. Work on O=C1Cc2ccc(-c3ccc(S(=O)(=O)[C@H]4CC[C@H](Nc5ccc(S(F)(F)(F)(F)F)cc5)CC4)cc3)cc2CN1 [Example 53, 7-(4-{[trans-4-{[4-(pentafluoro-λ^6-sulfanyl)phenyl]Amino}cyclohexyl]sulfonyl}phenyl)-1,2,3,4-tetrahydroisoquinolin-3-one] yielded an IC50 of 79.4 nM. With O=C1Cc2cc(-c3ccc(S(=O)(=O)[C@H]4CC[C@H](Nc5ccc(S(F)(F)(F)(F)F)cc5)CC4)cc3)ccc2CN1 [Example 54, 6-(4-{[trans-4-{[4-(pentafluoro-λ^6-sulfanyl)phenyl]Amino}cyclohexyl]sulfonyl}phenyl)-1,2,3,4-tetrahydroisoquinolin-3-one] the IC50 was 50.1 nM. With O=c1[nH]cnn2cc(-c3ccc(S(=O)(=O)[C@H]4CC[C@H](Nc5ccc(S(F)(F)(F)(F)F)cc5)CC4)cc3)cc12 [Example 55, 6-(4-{[trans-4-{[4-(pentafluoro-λ^6-sulfanyl)phenyl]Amino}cyclohexyl]sulfonyl}phenyl)-3H,4H-pyrrolo[2,1-f][1,2,4]triazin-4-one] the IC50 was 31.6 nM. Molecule CP(C)(=O)c1ccc(-c2ccc(S(=O)(=O)[C@H]3CC[C@H](Nc4ccc(S(F)(F)(F)(F)F)cc4)CC3)cc2)cc1 [Example 57, 4-(pentafluoro-λ^6-sulfanyl)-N-[trans-4-{[4′-(dimethylphosphoryl)-[1,1′-biphenyl]-4-yl]sulfonyl}cyclohexyl]aniline] has an IC50 of 200 nM. Work on NC(=O)c1ccc(-c2ccc(S(=O)(=O)[C@H]3CC[C@H](Nc4ccc(S(F)(F)(F)(F)F)cc4)CC3)cc2)nn1 [Example 62, 6-(4-{[trans-4-{[4-(pentafluoro-λ^6-sulfanyl)phenyl]Amino}cyclohexyl]sulfonyl}phenyl)pyridazine-3-carboxamide] yielded an IC50 of 398 nM. For Cc1cc(-c2ccc(S(=O)(=O)[C@H]3CC[C@H](Nc4ccc(S(F)(F)(F)(F)F)cc4)CC3)cc2)cn2c(C(C)C)cnc12 [Example 64, 4-(pentafluoro-λ^6-sulfanyl)-N-[trans-4-{4-[8-methyl-3-(propan-2-yl)imidazo[1,2-a]pyridin-6-yl]benzenesulfonyl}cyclohexyl]aniline], the IC50 was 50.1 nM. Molecule O=C1Nc2ccc(-c3ccc(S(=O)(=O)[C@H]4CC[C@H](Nc5ccc(S(F)(F)(F)(F)F)cc5)CC4)cc3)cc2C12CC2 [Example 65, 5′-(4-{[trans-4-{[4-(pentafluoro-λ^6-sulfanyl)phenyl]amino}cyclohexyl]sulfonyl}phenyl)-1′,2′-dihydrospiro[cyclopropane-1,3′-indol]-2′-one] has an IC50 of 39.8 nM. In the case of Cc1cnc2ccc(-c3ccc(S(=O)(=O)N4CCC(Nc5ccc(S(F)(F)(F)(F)F)cc5)CC4)c(F)c3)cn12 [Example 67, 1-(2-fluoro-4-{3-methylimidazo[1,2-a]pyridin-6-yl}benzenesulfonyl)-N-[4-(pentafluoro-λ^6-sulfanyl)phenyl]piperidin-4-amine], the IC50 is reported as 631 nM. With Cc1cnc2ccc(-c3ccc(S(=O)(=O)N4CCC(Nc5ccc(S(F)(F)(F)(F)F)cc5)CC4)cc3F)cn12 [Example 68, 1-(3-fluoro-4-{3-methylimidazo[1,2-a]pyridin-6-yl}benzenesulfonyl)-N-[4-(pentafluoro-λ^6-sulfanyl)phenyl]piperidin-4-amine] the IC50 was 1000 nM. In the case of Cc1cnc2ccc(-c3ccc(S(=O)(=O)N4CCC(Nc5ccc(S(F)(F)(F)(F)F)cc5)CC4)nc3)cn12 [Example 70, 1-[(5-{3-methylimidazo[1,2-a]pyridin-6-yl}pyridin-2-yl)sulfonyl]-N-[4-(pentafluoro-λ^6-sulfanyl)phenyl]piperidin-4-amine], the IC50 is reported as 1260 nM. Molecule N#Cc1cnc2ccc(-c3ccc(S(=O)(=O)N4CCC(Nc5ccc(S(F)(F)(F)(F)F)cc5)CC4)cc3F)cn12 [Example 71, 6-{2-fluoro-4-[(4-{[4-(pentafluoro-λ^6-sulfanyl)phenyl]Amino}piperidin-1-yl)sulfonyl]phenyl}imidazo[1,2-a]pyridine-3-carbonitrile] has an IC50 of 1000 nM. O=S(=O)(c1ccc(-c2ccc3nccn3c2)c(F)c1)N1CCC(Nc2ccc(S(F)(F)(F)(F)F)cc2)CC1 [Example 72, 1-(3-fluoro-4-{imidazo[1,2-a]pyridin-6-yl}benzenesulfonyl)-N-[4-(pentafluoro-λ^6-sulfanyl)phenyl]piperidin-4-amine] gave an IC50 of 1580 nM. Molecule O=S(=O)(c1ccc(-c2ccc3nccn3c2)cn1)N1CCC(Nc2ccc(S(F)(F)(F)(F)F)cc2)CC1 [Example 75, 1-[(5-{imidazo[1,2-a]pyridin-6-yl}pyridin-2-yl)sulfonyl]-N-[4-(pentafluoro-λ^6-sulfanyl)phenyl]piperidin-4-amine] has an IC50 of 1000 nM. N#Cc1cnc2ccc(-c3ccc(S(=O)(=O)N4CCC(Nc5ccc(S(F)(F)(F)(F)F)cc5)CC4)nc3)cn12 [Example 78, 6-{6-[(4-{[4-(pentafluoro-λ^6-sulfanyl)phenyl]Amino}piperidin-1-yl)sulfonyl]pyridin-3-yl}imidazo[1,2-a]pyridine-3-carbonitrile] was tested, and the IC50 was 1580 nM. O=S(=O)(c1ccc(-c2ccc3nccn3c2)cc1Cl)N1CCC(Nc2ccc(S(F)(F)(F)(F)F)cc2)CC1 [Example 79, 1-(2-chloro-4-{imidazo[1,2-a]pyridin-6-yl}benzenesulfonyl)-N-[4-(pentafluoro-λ^6-sulfanyl)phenyl]piperidin-4-amine] gave an IC50 of 1580 nM. Work on N#Cc1cnc2ccc(-c3ccc(S(=O)(=O)N4CCC(Nc5ccc(S(F)(F)(F)(F)F)cc5)CC4)c(Cl)c3)cn12 [Example 80, 6-{3-chloro-4-[(4-{[4-(pentafluoro-λ^6-sulfanyl)phenyl]Amino}piperidin-1-yl)sulfonyl]phenyl}imidazo[1,2-a]pyridine-3-carbonitrile] yielded an IC50 of 2000 nM. In the case of N=S(=O)(c1ccc(-c2ccc3nccn3c2)cc1)[C@H]1CC[C@@H](Nc2ccc(S(F)(F)(F)(F)F)cc2)CC1 (stereo partly drawn) [Example 88, (4-{imidazo[1,2-a]pyridin-6-yl}phenyl)[cis-4-{[4-(pentafluoro-λ^6-sulfanyl)phenyl]Amino}cyclohexyl](imino)-λ^6-sulfanone], the IC50 is reported as 794 nM.
